Among the test systems are UACC-257 melanoma; SF-268 CNS; 786-0 renal; SN12C renal; HCT-15 colon; NCI-H460 lung; SK-OV-3 ovarian; IGROV1 ovarian; KM12 colon; NCI-H522 lung.
What all share (experiment): NCI tumour cell line growth inhibition, 48 h

Our source for the TGI and GI50 values is PubChem BioAssay (NCI).

“And” between values parts separate entries of the source, which are not always exact repeats. Identical values can stand only once.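 Values below derive from 48-hour exposures of cells grown in 96-well plates, with endpoints linearly interpolated between the two concentrations bracketing the appropriate inhibition level. GI50: concentration for 50% inhibition of growth. TGI is the concentration that stops growth completely.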

For the compound `COC(=O)[C@@H](C)C[C@H](Cc1ccccc1)NC(=O)c1csc([C@@H](C[C@H](C(C)C)N(C)C(=O)[C@@H](NC(=O)[C@H]2CCCCN2C)c2ccc(F)cc2)OC(C)=O)n1`, the TGI with UACC-257 melanoma is more than 100 µM; with SF-268 CNS, 25 µM and > 100 µM; with 786-0 renal, 6.23 µM and 42.5 µM; in the test with SN12C renal, 22.2 µM and 19.5 µM; in the test with HCT-15 colon it was 25 µM and > 100 µM; in the test with NCI-H460 lung it was 25 µM and > 100 µM. Further, the TGI in the test with SK-OV-3 ovarian is 25 µM and > 100 µM; in the test on IGROV1 ovarian it was 25 µM and > 100 µM; in the test with KM12 colon it was 25 µM and > 100 µM. Further, the GI50 in the test on NCI-H522 lung was 0.00259 µM and 0.0234 µM.
Take `C[C@]1(c2nc3c(C(N)=O)cccc3[nH]2)CCCN1`: the GI50 with UACC-257 melanoma was 99.9 µM and > 100 µM; in the test on SF-268 CNS, more than 100 µM; in the test on 786-0 renal it was more than 100 µM; in the test with SN12C renal, 79.9 µM and > 85.5 µM; in the test with HCT-15 colon, 54.4 µM and > 100 µM; in the test on NCI-H460 lung, 35.5 µM and 48.6 µM. Besides, the GI50 in the test on SK-OV-3 ovarian was more than 100 µM; with IGROV1 ovarian, 32.7 µM and 60.5 µM; with KM12 colon it was 61.9 µM and > 86.2 µM; in the test with NCI-H522 lung, > 63 µM and 97.6 µM. The TGI in the test with UACC-257 melanoma, with SF-268 CNS, in the test on 786-0 renal, with SN12C renal, in the test with HCT-15 colon and in the test with NCI-H460 lung was more than 100 µM throughout. Besides, the TGI in the test on SK-OV-3 ovarian, in the test with IGROV1 ovarian, in the test with KM12 colon and with NCI-H522 lung was more than 100 µM throughout.
As for `CC1=NC(C)=C(/C(C)=N/NC(=O)c2ccccc2O)C(C)/C1=C(/C)NNC(=O)c1ccccc1O` (stereo not given), the TGI in the test on UACC-257 melanoma is 76.6 µM; in the test with SF-268 CNS, more than 100 µM; in the test with 786-0 renal, 44.3 µM; with SN12C renal, more than 100 µM; in the test with HCT-15 colon, 99 µM; with NCI-H460 lung, 66.6 µM. The TGI with SK-OV-3 ovarian was more than 100 µM; in the test on IGROV1 ovarian, 33 µM; with KM12 colon it was more than 100 µM; in the test with NCI-H522 lung it was 43.6 µM.
Regarding `CCCCCCCC(=O)Nc1nc2[nH]c(CN3CCN(Cc4cccc(I)c4)CC3)c(CN3CCN(Cc4cccc(I)c4)CC3)c2c(=O)[nH]1`, the GI50 in the test on UACC-257 melanoma was 1.14 µM; with SF-268 CNS, 0.829 µM; in the test on 786-0 renal it was 0.793 µM; in the test with SN12C renal, 0.916 µM; with HCT-15 colon, 0.812 µM; in the test on NCI-H460 lung, 0.925 µM. Further, the GI50 is 0.916 µM in the test with SK-OV-3 ovarian, 0.836 µM in the test on IGROV1 ovarian, 0.906 µM with KM12 colon and 0.901 µM in the test with NCI-H522 lung. Moreover, the TGI with UACC-257 melanoma is 2.44 µM; in the test on SF-268 CNS it was 1.65 µM; with 786-0 renal, 1.5 µM; in the test on SN12C renal it was 1.75 µM; in the test on HCT-15 colon, 1.54 µM; in the test with NCI-H460 lung it was 1.76 µM. Moreover, the TGI in the test with SK-OV-3 ovarian worked out at 1.7 µM; in the test on IGROV1 ovarian, 1.67 µM; with KM12 colon, 1.75 µM; in the test with NCI-H522 lung it was 1.95 µM.
Regarding `CC[C@H](C)[C@H](NC(=O)c1ncccn1)C(=O)N(C)[C@H](C[C@@H](OC(C)=O)c1nc(C(=O)N[C@@H](Cc2ccccc2)C[C@H](C)C(=O)OC)cs1)C(C)C`, the GI50 is 2.38 µM with UACC-257 melanoma; 2.21 µM in the test with SF-268 CNS; 1.72 µM in the test on 786-0 renal; 2.81 µM in the test with SN12C renal; 1.39 µM in the test on HCT-15 colon; 0.925 µM in the test with NCI-H460 lung. Besides, the GI50 was 5.51 µM with SK-OV-3 ovarian, 1.38 µM with IGROV1 ovarian, 1.04 µM with KM12 colon and 1.01 µM with NCI-H522 lung. Further, the TGI in the test with UACC-257 melanoma, in the test on SF-268 CNS, in the test with 786-0 renal, in the test with SN12C renal, with HCT-15 colon and in the test with NCI-H460 lung was more than 25 µM each time. Also, the TGI is more than 25 µM in the test with SK-OV-3 ovarian, more than 25 µM in the test on IGROV1 ovarian, more than 25 µM in the test on KM12 colon and 7.37 µM with NCI-H522 lung.
Take `CCC(CO)Nc1nc(NCc2ccccc2)c2n[nH]c(C(C)C)c2n1` (stereo not given): the GI50 was 16.6 µM in the test with UACC-257 melanoma; 10.7 µM with SF-268 CNS; 6.68 µM with 786-0 renal; 14.1 µM in the test with SN12C renal; 14.7 µM in the test on HCT-15 colon; 4.94 µM with NCI-H460 lung. The GI50 in the test on SK-OV-3 ovarian is 6.4 µM; in the test with IGROV1 ovarian it was 3.44 µM; in the test with KM12 colon, 10.2 µM; in the test with NCI-H522 lung, 14.5 µM. In addition, the TGI in the test with UACC-257 melanoma turned out to be 35.6 µM; with SF-268 CNS, 26.4 µM; with 786-0 renal, 21.5 µM; with SN12C renal it was 31.7 µM; in the test with HCT-15 colon it was 49.7 µM; in the test on NCI-H460 lung, 19.4 µM. In addition, the TGI with SK-OV-3 ovarian was found to be 20.7 µM; in the test on IGROV1 ovarian it was 25.6 µM; in the test on KM12 colon, 23.1 µM; in the test with NCI-H522 lung, 34.1 µM.
For the compound `CC1(C)CC[C@]2(C(=O)NCCNCCN)CC[C@]3(C)C(=CC[C@@H]4[C@@]5(C)CCC(=O)C(C)(C)[C@@H]5CC[C@]43C)[C@@H]2C1`, the GI50 in the test on UACC-257 melanoma is 1.86 µM; in the test with SF-268 CNS it was 1.89 µM; with 786-0 renal, 1.71 µM; with SN12C renal, 1.68 µM; with HCT-15 colon, 1.79 µM; in the test on NCI-H460 lung, 1.86 µM. For the same compound, the GI50 is 2.56 µM in the test on SK-OV-3 ovarian, 1.69 µM with IGROV1 ovarian, 1.85 µM in the test with KM12 colon and 1.78 µM in the test on NCI-H522 lung. Further, the TGI worked out at 3.85 µM in the test with UACC-257 melanoma; 4.06 µM in the test with SF-268 CNS; 3.09 µM in the test with 786-0 renal; 3.13 µM in the test with SN12C renal; 3.29 µM with HCT-15 colon; 3.51 µM with NCI-H460 lung. For the same compound, the TGI is 6.09 µM in the test on SK-OV-3 ovarian, 3.11 µM in the test on IGROV1 ovarian, 3.4 µM with KM12 colon and 3.91 µM in the test on NCI-H522 lung.
In the case of `O=C(Nc1ccc(Cl)cc1)c1cc(NCc2cc(O)ccc2O)ccc1O`, the GI50 with UACC-257 melanoma was 15.7 µM; in the test on SF-268 CNS it was 3.04 µM; in the test on 786-0 renal, 6.17 µM; in the test with SN12C renal it was 7.47 µM; with HCT-15 colon it was 1.81 µM; in the test with NCI-H460 lung it was 13.3 µM. Further, the GI50 is 25 µM in the test with SK-OV-3 ovarian, 11.2 µM with IGROV1 ovarian, 3.33 µM in the test with KM12 colon and 0.488 µM in the test with NCI-H522 lung. Further, the TGI was determined as 30.3 µM in the test with UACC-257 melanoma; 14 µM in the test on SF-268 CNS; 19.6 µM with 786-0 renal; 22.6 µM with SN12C renal; 6.01 µM with HCT-15 colon; 33.2 µM in the test on NCI-H460 lung. Further, the TGI in the test on SK-OV-3 ovarian turned out to be 60.7 µM; with IGROV1 ovarian, 38.8 µM; in the test on KM12 colon, 14.6 µM; in the test with NCI-H522 lung, 1.88 µM.
